This is an account of results in patent US12123813B2, “Polymer stabilization of chromogen solutions” (Ventana Medical Systems, Inc., priority 2012, dated 2024).

Where a name gives a salt, the structure may show the parent alone.

Series [1] can be described thus: Polymer screening: DAB sulfate precipitation after KHSO4 addition (visual). In kind it is physicochemical. Particulars: additive in DAB chromogen solution.
Protocol: One embodiment of a DAB base solution comprises DAB chromogen, one or more enhancers, and a stabilizer. […] Exemplary base solutions comprise 5.5 mM DAB, 10 mM imidazole, 10 mM 2-hydroxypyridine, and 1 mM sodium metabisulfite, with a pH of 2.5±0.1. In one embodiment, these compositions were tested using KHSO4 concentrations ranging from 0 to about 10 mM; more typically 0, 1.37, 2.75 and 8.0 mM, with DAB sulfate precipitation being induced at 4° C. overnight.
Polymers were screened for their impact on DAB sulfate precipitation formation by combining an enhanced DAB base solution containing a set amount of the polymer with select molar ratios of potassium hydrogen sulfate, KHSO4, relative to DAB. The enhanced DAB base solution used comprised 5.5 mM DAB·4HCl, 10 mM imidazole, 10 mM 2-hydroxypyridine, 1 mM sodium metabisulfite and 0.05% w/v Brij 35 at pH=2.3±0.1. The potassium hydrogen sulfate concentrations screened were 2.75 and 8.0 mM. […] Solutions were monitored for physical changes (i.e. color or precipitation).
Candidate polymers were screened for their impact on DAB sulfate precipitation formation by combining an enhanced DAB base solution containing a set amount of the polymer with select molar ratios of potassium hydrogen sulfate, KHSO4, relative to DAB. […] Solutions were monitored for physical changes (i.e. color or precipitation).
Series [2] can be described thus: Water solubility of DAB-polymer complex in chromogen solution. In kind it is physicochemical.
Description: Sulfate and sulfonate polymers are believed to form a DAB-polymer salt complex where the hydrophilic polymer backbone helps maintain water solubility.

For the compound `CC(O)CO` (centres unmarked) [1,2-propanediol], the “inhibition of DAB sulfate precipitation (in words)” value in series [1] is reported as “failed to inhibit DAB sulfate precipitation”.

In the case of `NCCOS(=O)(=O)O` [2-aminoethylhydrogen sulfate], the “formation of water soluble DAB-polymer complex (in words)” value in series [2] is “did not form water soluble DAB complexes”.
